Laboratory results reported in patent US20250295815A1, “PORPHYRIN-HYDROPORPHYRIN COMPOUNDS, COMPOSITIONS COMPRISING THE SAME AND METHODS OF USE THEREOF” (North Carolina State University, priority 2021, published 2025).

Columns and labels:
Type in all cases: physicochemical
[1] = Dyad photophysical properties in toluene, excited at 405 nm; set-up: ext coeff (abs max B) / brightness (abs max): unit not given here; conditions: for ext coeff (405 nm) / brightness (405 nm): at 405 nm; for ext coeff (405 nm) / FWHM / QY (x405) / abs max B / abs max Qx / abs max Qy / ext coeff (abs max B) / em max: room temperature; for ext coeff (405 nm): in M-1 cm-1 (unit assumed); for FWHM: emission peak; for FWHM / QY (x405) / em max: excited at 405 nm; for QY (x405): fluorescence quantum yield; for brightness (405 nm) / brightness (abs max): molar absorption coefficient x fluorescence quantum yield; for brightness (405 nm): in M⁻¹cm⁻¹; for brightness (abs max): at abs max
Procedure: (§1) The photophysical properties of samples were tested in toluene at room temperature and excited at 405 nm.

[2] = Brightness of hydroporphyrin monomers vs. porphyrin-hydroporphyrin dyads at 405 nm excitation; conditions: for fold change: brightness of dyad vs. corresponding hydroporphyrin monomer, 405 nm; for FWHM: emission peak narrowness; for QY (x405): fluorescence quantum yield in toluene at room temperature; for ext coeff (405 nm): molar absorption coefficient at 405 nm, in M-1 cm-1 (unit assumed); for brightness (405 nm): product of molar absorption coefficient at 405 nm and fluorescence quantum yield, in M⁻¹cm⁻¹; for brightness (405 nm) / abs max B / em max: toluene, room temperature
Procedure: Brightness was calculated using an excitation wavelength of 405 nm for a hydroporphyrin monomer having an emission wavelength of approximately 660, 680, 715, or 800 nm and for a fluorescent compound including a porphyrin and a hydroporphyrin structurally similar to the hydroporphyrin monomer. Brightness was calculated as the product of the molar absorption coefficient at 405 nm and the fluorescence quantum yield in toluene at room temperature. Table 3 provides the emission wavelength of the hydroporphyrin monomer and the corresponding dyad, the brightness of the hydroporphyrin monomer excited at 405 nm, the brightness of the dyad excited at 405 nm, and the fold change in brightness of the hydroporphyrin monomer compared to the brightness of the dyad.

[3] = Comparison porphyrin photophysical properties in toluene, excited at 405 nm; conditions: for ext coeff (405 nm) / brightness (405 nm): at 405 nm; for ext coeff (405 nm) / QY (x405) / abs max B / abs max Qx / em max / ext coeff (abs): room temperature; for ext coeff (405 nm) / ext coeff (abs): in M-1 cm-1 (unit assumed); for QY (x405): fluorescence quantum yield; for QY (x405) / em max: excited at 405 nm; for brightness (405 nm) / brightness (abs max): molar absorption coefficient x fluorescence quantum yield; for brightness (405 nm): in M⁻¹cm⁻¹; for brightness (abs max): at abs max
Procedure: as §1

[4] = Fluorescence emission spectra in toluene (FIG. 5-8); conditions: for Brightness (molar absorption coefficient×fluorescence quantum yield): in M⁻¹cm⁻¹; for residual porphyrin emission in fluorescence spectrum: toluene, room temperature, FIG. 5, FIG. 6
Procedure: Emission spectra were collected in toluene at room temperature. […] P5-C3 contains a more rigid linker between chlorin and porphyrin than in P3-C1, which results in greater spatial separation of the two components and lower energy transfer.
Brightness (molar absorption coefficient×fluorescence quantum yield): 84,700 (P3-C1), 13,900 (P5-C3).
Emission spectra were collected using 0.5 uM solutions in toluene. Brightness (molar absorption coefficient×fluorescence quantum yield): 19,900 (P11-BC3 meso), 45,100 (P11-BC1 beta).

[5] = FIG. 7, same sample concentration

Row | ext coeff (405 nm) [1] | FWHM [1] | QY (x405) [1] | brightness (405 nm) [1] | brightness (abs max) [1] | abs max B [1] | abs max Qx [1] | abs max Qy [1] | ext coeff (abs max B) [1] | em max [1] | SMILES | fold change [2] | FWHM [2] | QY (x405) [2] | ext coeff (405 nm) [2] | brightness (405 nm) [2] | abs max B [2] | em max [2] | other results
1 | 238,800 | 17 nm | 0.34 | 80,567 | 81,579 | 406 nm | 499 nm | 680 nm | 241,800 | 682 nm | COC(=O)c1ccc(-c2c3nc(cc4[nH]c(cc5nc(cc6[nH]c2cc6C#Cc2ccc(-c6c7nc(cc8ccc(cc9nc(cc%10ccc6[nH]%10)C=C9)[nH]8)C=C7)cc2)CC5(C)C)cc4C#Cc2ccc(-c4c5nc(cc6ccc(cc7nc(cc8ccc4[nH]8)C=C7)[nH]6)C=C5)cc2)C=C3)cc1 [Dyad P1-C6] | 6.4 | 17 nm | 0.34 | 238,800 | 80,567 | 406 nm | 682 nm | 
2 |  |  |  |  |  |  |  |  |  |  | CC1(C)OB(c2ccc(CNC(=O)c3ccc(C4=C5C=CC(=N5)C=c5ccc6[n]5[Zn][n]5c(ccc54)C=C4C=CC(=N4)C=6)cc3)cc2)OC1(C)C [Dyad P2] |  |  |  |  |  |  |  | ext coeff (405 nm) [3]: 209,100; QY (x405) [3]: 0.03; brightness (405 nm) [3]: 5,899; brightness (abs max) [3]: 6,466; abs max B [3]: 407 nm; abs max Qx [3]: 533 nm; em max [3]: 623 nm; ext coeff (abs) [3]: 229,200
3 | 350,200 | 18 nm | 0.24 | 84,723 | 106,623 | 410 nm | 505 nm | 652 nm | 440,633 | 656 nm | COC(=O)c1ccc(-c2c3nc(cc4[nH]c(cc5nc(cc6[nH]c2cc6-c2ccc(CNC(=O)c6ccc(-c7c8nc(cc9ccc([nH]9)c(-c9c(C)cc(C)cc9C)c9nc(cc%10ccc7[nH]%10)C=C9)C=C8)cc6)cc2)CC5(C)C)cc4-c2ccccc2)C=C3)cc1 [Dyad P3-C1] |  |  |  |  |  |  |  | Brightness (molar absorption coefficient×fluorescence quantum yield) [4, 5]: 84,700; residual porphyrin emission in fluorescence spectrum [4]: no residual emission from the porphyrin
4 |  |  |  |  |  |  |  |  |  |  | Cc1cc(C)c(-c2c3nc(cc4ccc([nH]4)c(-c4ccc(C(=O)NCc5ccc(B6OC(C)(C)C(C)(C)O6)cc5)cc4)c4nc(cc5ccc2[nH]5)C=C4)C=C3)c(C)c1 [Dyad P3] |  |  |  |  |  |  |  | ext coeff (405 nm) [3]: 234,100; QY (x405) [3]: 0.04; brightness (405 nm) [3]: 9,628; brightness (abs max) [3]: 12,560; abs max B [3]: 409 nm; abs max Qx [3]: 503 nm; em max [3]: 702 nm; ext coeff (abs) [3]: 305,400
5 | 171,800 |  | 0.08 | 13,934 | 17,413 | 409 nm | 504 nm | 657 nm | 214,700 | 659 nm | COC(=O)c1ccc(-c2c3nc(cc4ccc(cc5nc(cc6[nH]c2cc6C#Cc2ccc(CNC(=O)c6ccc(-c7c8nc(cc9ccc([nH]9)c(-c9c(C)cc(C)cc9C)c9nc(cc%10ccc7[nH]%10)C=C9)C=C8)cc6)cc2)CC5(C)C)[nH]4)C=C3)cc1 [Dyad P5-C3] |  |  |  |  |  |  |  | Brightness (molar absorption coefficient×fluorescence quantum yield) [4, 5]: 13,900; residual porphyrin emission in fluorescence spectrum [4]: porphyrin emission is apparent
6 | 346,400 | 18 nm | 0.25 | 87,748 | 94,791 | 407 nm | 533 nm | 652 nm | 374,100 | 656 nm | COC(=O)c1ccc(-c2c3nc(cc4[nH]c(cc5nc(cc6[nH]c2cc6-c2ccc(CNC(=O)c6ccc(C7=C8C=CC(=N8)C=c8ccc9[n]8[Zn][n]8c(ccc87)C=C7C=CC(=N7)C=9)cc6)cc2)CC5(C)C)cc4-c2ccccc2)C=C3)cc1 [P2-C1, methyl ester] | 2.5 | 18 nm | 0.25 | 346,400 | 87,748 | 407 nm | 656 nm | 

Row | SMILES | ext coeff (405 nm) [1] | FWHM [1] | QY (x405) [1] | brightness (405 nm) [1] | brightness (abs max) [1] | abs max B [1] | abs max Qx [1] | abs max Qy [1] | ext coeff (abs max B) [1] | em max [1] | fold change [2] | FWHM [2] | QY (x405) [2] | ext coeff (405 nm) [2] | brightness (405 nm) [2] | abs max B [2] | em max [2] | other results
7 | COC(=O)c1c(C#Cc2ccc(-c3c4nc(cc5ccc(cc6nc(cc7ccc3[nH]7)C=C6)[nH]5)C=C4)cc2)c2cc3nc(c(OC)c4[nH]c(cc5nc(cc1[nH]2)CC5(C)C)c(C#Cc1ccc(-c2c5nc(cc6ccc(cc7nc(cc8ccc2[nH]8)C=C7)[nH]6)C=C5)cc1)c4C(=O)OC)CC3(C)C [Dyad P1-BC2] | 325,400 | 31 nm | 0.19 | 60,845 | 60,845 | 405 nm | 499 nm | 795 nm | 325,400 | 804 nm | 18.6 | 31 nm | 0.19 | 325,400 | 60,845 | 405 nm | 804 nm | 
8 | COc1c2nc(cc3ccc([nH]3)c(-c3ccc(-c4c5nc(cc6ccc(cc7nc(cc8ccc4[nH]8)C=C7)[nH]6)C=C5)cc3)c3nc(cc4ccc1[nH]4)C(C)(C)C3)C(C)(C)C2 [Dyad P11-BC3] | 118,100 | 15 nm | 0.17 | 19,871 | 20,998 | 407 nm | 511 nm | 714 nm | 124,800 | 714 nm | 64.9 | 15 nm | 0.17 | 118,100 | 19,871 | 407 nm | 714 nm | Brightness (molar absorption coefficient×fluorescence quantum yield) ([4]; FIG. 8, 0.5 uM solutions in toluene, meso vs. beta linkage): 19,900
